The source of these data is ChEMBL document CHEMBL1134885, “Synthesis and thrombolytic activity of pseudopeptides related to fibrinogen fragment” (2002).

Square brackets hold non-standard residues; d marks the D form. Peptide text beside a SMILES is read from it. Tpi = O=C(O)[C@@H]1Cc2c([nH]c3ccccc23)CN1

Common to all, as to type: functional
Test [1] has as its system Rattus norvegicus. Briefly: The reduction of thrombolytic mass by the compound was calculated at a dose of 7.4 mg/Kg.
Test [2] has as its system Rattus norvegicus. As to the kind of experiment: The reduction of thrombolytic mass by the compound was calculated at a dose of 7.2 mg/Kg.
For test [3], the system named is Rattus norvegicus. Briefly: The reduction of thrombolytic mass by the compound was calculated at a dose of 8 mg/kg.
Test [4] deals with Rattus norvegicus. Briefly: The reduction of thrombolytic mass by the compound was calculated at a dose of 5.4 mg/Kg.
Test [5] has as its system Rattus norvegicus. As to the kind of experiment: The reduction of thrombolytic mass by the compound was calculated at a dose of 5.3 mg/Kg.
Test [6] has as its system Rattus norvegicus. As to the kind of experiment: The reduction of thrombolytic mass by the compound was calculated at a dose of 6 mg/kg.

Turning to `C[C@H](NC(=O)[C@@H]1Cc2c([nH]c3ccccc23)CN1)C(=O)N[C@@H](CCCN=C(N)N)C(=O)N1CCC[C@H]1C(=O)N[C@@H](C)C(=O)N[C@@H](CCCCN)C(=O)O` (H-[Tpi]ARPAK-OH), the Activity with Rattus norvegicus [1] is recorded as 16.13 mg.

Regarding `C[C@H](NC(=O)[C@@H]1CCCN1C(=O)[C@H](CCCN=C(N)N)NC(=O)CNC(=O)[C@@H]1Cc2c([nH]c3ccccc23)CN1)C(=O)N[C@@H](CCCCN)C(=O)O` (H-[Tpi]GRPAK-OH), the Activity in the test on Rattus norvegicus [2] was 19.7 mg. Take `C[C@H](NC(=O)[C@@H]1CCCN1C(=O)[C@H](CCCN=C(N)N)NC(=O)[C@H](CCC(N)=O)NC(=O)[C@@H]1Cc2c([nH]c3ccccc23)CN1)C(=O)N[C@@H](CCCCN)C(=O)O` (H-[Tpi]QRPAK-OH): the Activity in the test on Rattus norvegicus [3] is on record as 17.27 mg. For the molecule H-ARPAK-OH, the Activity in the test on Rattus norvegicus [4] was 18.84 mg. As for H-GRPAK-OH, the Activity with Rattus norvegicus [5] was 25.9 mg. Regarding H-QRPAK-OH, the Activity in the test on Rattus norvegicus [6] is recorded as 21.28 mg.
